Experimental data from patent US12568971B2, “Degradative method” (Catexel Technologies Limited, priority 2020, dated 2026).

Experiments:
[1] = Dynamic viscosity of alginate solution after treatment (alginate depolymerisation), Brookfield cone/plate viscometer; conditions: 60 min at 50° C.
Experimental: The bottle was placed in a warm water bath (50° C.) for 60 minutes before being removed and cooled in an ice bath. Finally, the dynamic viscosity was determined using a Brookfield viscosity meter as outlined below. Note 1: A 2 mM solution of [[…])2 (see description of stock 12 above) was mixed with equivalent volume of the 2 mM ascorbic acid stock solution (stock solution 7). Upon contact with the ascorbic acid, the catalyst turned from orange/red to red/purple. Note 2: 0.5 mL of both Me3-TACN ligand (stock solution 10) and MnSO4·H2O (stock solution 8) were mixed, stirred and used as a source of catalyst to be placed in the alginate solution. The dynamic viscosity of the samples was measured using a Brookfield HBDV-II cone/plate viscosity meter equipped with a spindle CPE-40. The viscometer was linked to a water bath to maintain the temperature at 25° C. The apparatus was controlled via computer (external mode) using the Rheocalc software. Initially, the viscometer was zeroed without spindle. Then, the spindle CPE-40 was installed and the gap between the bottom of the cone and the top of the cup was set according to the recommendations given by Brookfield. 0.5 mL of the treated alginate solution was placed in the cup of the viscometer using a disposable plastic syringe before the apparatus was closed and the test program launched. […] Results.

[2] = cited from earlier work
[3] = at 20° C.; cited from earlier work

## O=S(=O)([O-])[O-].[Mn+2] [MnSO4, manganese sulfate]
[1]; Entry 1: 10 μM MnSO4, 10 μM Me3TACN ligand, 20 mM H2O2, 4.7 mM NaHCO3, pH 10
  Dynamic Viscosity: 85.4 mPa · s
[1]; Entry 2: 10 μM MnSO4, 20 μM Me3TACN ligand, 20 mM H2O2, 4.7 mM NaHCO3, pH 10
  Dynamic Viscosity: 76.1 mPa · s
[1]; Entry 3: 10 μM MnSO4, 40 μM Me3TACN ligand, 20 mM H2O2, 4.7 mM NaHCO3, pH 10
  Dynamic Viscosity: 63.4 mPa · s

## CC(=O)[O-].CN1CCN(C)CCN(CCN2CCN(C)CCN(C)CC2)CC1.[Cl-].[Cl-].[Mn+3].[Mn+4].[O-2].[O-2] [[Mn2(μ-O)2(μ-CH3COO)(Me4-DTNE)]^2+, [Mn2(μ-O)2(μ-CH3COO)(Me4DTNE)]Cl2]
[1]; 2.5 μM, pH 7.5, 10 mM H2O2, no buffer
  Dynamic Viscosity: 82.3 mPa · s
[1]; 2.5 μM, pH 8.0, 10 mM H2O2, no buffer
  Dynamic Viscosity: 82.9 mPa · s
[1]; 2.5 μM, pH 8.5, 10 mM H2O2, no buffer
  Dynamic Viscosity: 80.7 mPa · s
[1]; 5.0 μM, pH 7.5, 10 mM H2O2, no buffer
  Dynamic Viscosity: 49.4 mPa · s
[1]; 5.0 μM, pH 8.0, 10 mM H2O2, no buffer
  Dynamic Viscosity: 53.7 mPa · s
[1]; 5.0 μM, pH 8.5, 10 mM H2O2, no buffer
  Dynamic Viscosity: 51.5 mPa · s
[1]; 5.0 μM, pH 9.0, 10 mM H2O2, no buffer
  Dynamic Viscosity: 62.9 mPa · s

## O=C(O)[C@@H]1O[C@@H](O)[C@@H](O)[C@@H](O)[C@@H]1O [α-L-guluronic acid]
[2]
  pKa: 3.65

## O=C(O)[C@H]1O[C@@H](O)[C@@H](O)[C@@H](O)[C@@H]1O [β-D-mannuronic acid]
[2]
  pKa: 3.38

## [Mn^IVMn^IV(μ-O)3(Me3-TACN)2][PF6]2
[3]
  water solubility: 10.8 mg/mL
